From publication PMC7294809, “Discovery of an Allosteric Binding Site in Kinetoplastid Methionyl-tRNA Synthetase” (ACS Infectious Diseases, 2020)
Values after ≈ are worked out from the molar mass of the structure shown. Like-named read-outs stand apart in the source and are kept apart here. Marks after values point to notes of the source that are not given here.

Assays:
[1] = biological target: T1, TcMetRS (Trypanosoma cruzi, UniProt Q4D6H2); experiment: TcMetRS kinetic parameter determinations (Km app); format: biochemical
Method: (§1) The activity of the TcMetRS enzyme was determined by monitoring levels of pyrophosphate released during the first step of the enzymatic reaction. The pyrophosphate formed was converted to two inorganic phosphate molecules using a pyrophosphatase enzyme, and levels of the resulting phosphate molecules were measured using the BIOMOL Green reagent (Enzo Life Sciences).
(§2) TcMetRS assays were carried out using 384-well, clear, flat-bottomed plates (Greiner) at room temperature (∼23 °C) in 50 μL reaction volumes of assay buffer (30 mM Tris, pH 8.0, 140 mM NaCl, 30 mM KCl, 40 mM MgCl2, 0.01% (v/v) Brij-35, 1 mM DTT) plus 1 U/mL pyrophosphatase and varying concentrations of enzyme and substrates. Enzyme linearity was assessed in a 90 min end-point assay with varying TcMetRS concentrations (0–320 nM), 50 μM L-methionine, and 100 μM ATP. Reactions were stopped with the addition of 50 μL of BIOMOL Green reagent, with the signal allowed to develop for 30 min before the absorbance of each well was read at 650 nm (A650) using a PheraStar plate reader (BMG).
(§3) Apparent Michaelis constants (Km^app) for the L-methionine and ATP substrates were determined in end-point assays using the above buffer conditions and 80 nM recombinant TcMetRS. […] To determine the ATP Km^app, various ATP concentrations were tested in the presence of a fixed, saturating concentration of L-methionine (3 mM). […]

[2] = biological target: T2, LdMetRS (Leishmania donovani, UniProt A0A3Q8IBX2); settings: read-out: LdMetRS Km app; cited from earlier work
[3] = biological target: T2, LdMetRS; experiment: LdMetRS BIOMOL Green biochemical assay, 10-point dose response
[4] = biological target: T1, TcMetRS; experiment: TcMetRS BIOMOL Green biochemical assay, 10-point dose response
[5] = CHI LogD measurement; format: physicochemical; settings: chromatographic hydrophobicity index
Method: CHI LogD measurements were performed as described elsewhere.[29] cLogP measurements were calculated using StarDrop (Optibrium).

[6] = Aqueous solubility, filtration-based method; format: physicochemical; settings: aqueous buffer, kinetic from dmso stock; phosphate-buffered saline pH 7.4, 24 h, 25 °C
Method: Solubility was assessed using a filtration-based method. Test compounds were dissolved in DMSO to give 10 mM solutions. Five microliters of the 10 mM solution was added to 195 μL of phosphate-buffered saline at pH 7.4 and mixed for 24 h (rotary mixing, 900 rpm, 25 °C) excluding light. After mixing, the samples were filtered to remove any undissolved material using a Millipore Multiscreen HTS filter. The filtrate was analyzed for dissolved drug compounds using UHPLC.

[7] = biological target: T2, LdMetRS; experiment: LdMetRS mode of inhibition studies; format: biochemical; settings: for Ki / h (inhibitor Hill slope) / β (fraction of activity remaining) / Vmax / n (substrate Hill slope) / Ks: LdMetRS; for Ki: fit to eq 7, ± SE of fit; for Vmax: global fit parameter; for n (substrate Hill slope) / Ks: global fit; for Ks: substrate dissociation constant
From the text: Subsequent full mode of inhibition studies with compounds from the MetRS02 series were more challenging due to the partial inhibition profiles of some compounds resulting in poor global fits to the standard competitive, uncompetitive, and noncompetitive inhibition models (eqs 3, 4, and 5, respectively). In addition, during the enzymatic characterization of methionine binding to LdMetRS, a Hill slope of <1 was obtained (and was hypothesized to be due to conformational selection).[6] This low Hill slope is also not factored into the standard inhibition models described (eqs 3–5). New models with additional parameters to account for the partial inhibition and low methionine Hill slope were therefore required (eqs 6 and 7). Using these modified equations, the mode of inhibition of compound 27 was carried out by testing LdMetRS enzyme activity under varying substrate concentrations at various inhibitor concentrations (Figure 5). The cooperative, noncompetitive, partial inhibition model (eq 7) was confirmed as the best fit (using F-test analyses), with a noncompetitive mode of inhibition consistent with binding in an allosteric binding pocket. The returned fit parameters are shown in Table 4 and are presented with the standard error (SE) of the fit to eq 7.
(§4) Using GraFit v6.0 (Erithacus Software), each data set was globally fitted to standard competitive, uncompetitive, and noncompetitive inhibition models (eqs 3–5).
(§5) Equation 5 (noncompetitive inhibition model): [drawing 5] 5 On the basis of poor data fits to the above models, partial inhibition and cooperativity parameters were introduced into the uncompetitive and noncompetitive models as previously described by Skovpen et al.[30],[31] Mode of inhibition data were globally fitted to these modified equations (eqs 6 and 7).
(§6) Equation 7 (cooperative, noncompetitive, partial inhibition model): [drawing 7] 7 v is the velocity, Vmax is the maximum velocity, [S] is the substrate concentration, [I] is the inhibitor concentration, Ki is the inhibitor constant, Ks is the substrate dissociation constant, n is the substrate Hill slope, h is the inhibitor Hill slope, and β is the proportionality constant (fraction of activity remaining when the enzyme is fully saturated with inhibitor).
(§7) If more than one model appeared possible, then data were fitted to both and examined for significance using the F-test function in GraFit.

[8] = biological target: T1, TcMetRS; experiment: TcMetRS mode of inhibition studies; format: biochemical; settings: for Ki / h (inhibitor Hill slope) / β (fraction of activity remaining) / Vmax / n (substrate Hill slope) / Ks: TcMetRS; for Ki: fit to eq 7, ± SE of fit; for Vmax: global fit parameter; for n (substrate Hill slope) / Ks: global fit; for Ks: substrate dissociation constant
From the text: It was therefore feasible to perform TcMetRS mode inhibition studies with this compound. These studies, carried out as previously described for LdMetRS, confirm a best fit to the same partial, cooperative, noncompetitive inhibition model (eq 7; Supporting Information Figure 6 and Table 4).
as §4, §5, §6, §7

[9] = biological target: T2, LdMetRS; parameters: method as in PMID 28967262; settings: cited from earlier work
[10] = tested on: leishmaniasis animal model; parameters: method as in PMID 28967262; settings: cited from earlier work
[11] = substrate: CSCC[C@H](N)C(=O)O; experiment: TcMetRS kinetic parameter determinations (Km app); format: biochemical, Trypanosoma cruzi; settings: other: saturating 350 μM ATP; N = 3; pH 8.0; 23.0 °C
Method: as §1, §2, §3

T2 sequence (A0A3Q8IBX2 entry or part of it): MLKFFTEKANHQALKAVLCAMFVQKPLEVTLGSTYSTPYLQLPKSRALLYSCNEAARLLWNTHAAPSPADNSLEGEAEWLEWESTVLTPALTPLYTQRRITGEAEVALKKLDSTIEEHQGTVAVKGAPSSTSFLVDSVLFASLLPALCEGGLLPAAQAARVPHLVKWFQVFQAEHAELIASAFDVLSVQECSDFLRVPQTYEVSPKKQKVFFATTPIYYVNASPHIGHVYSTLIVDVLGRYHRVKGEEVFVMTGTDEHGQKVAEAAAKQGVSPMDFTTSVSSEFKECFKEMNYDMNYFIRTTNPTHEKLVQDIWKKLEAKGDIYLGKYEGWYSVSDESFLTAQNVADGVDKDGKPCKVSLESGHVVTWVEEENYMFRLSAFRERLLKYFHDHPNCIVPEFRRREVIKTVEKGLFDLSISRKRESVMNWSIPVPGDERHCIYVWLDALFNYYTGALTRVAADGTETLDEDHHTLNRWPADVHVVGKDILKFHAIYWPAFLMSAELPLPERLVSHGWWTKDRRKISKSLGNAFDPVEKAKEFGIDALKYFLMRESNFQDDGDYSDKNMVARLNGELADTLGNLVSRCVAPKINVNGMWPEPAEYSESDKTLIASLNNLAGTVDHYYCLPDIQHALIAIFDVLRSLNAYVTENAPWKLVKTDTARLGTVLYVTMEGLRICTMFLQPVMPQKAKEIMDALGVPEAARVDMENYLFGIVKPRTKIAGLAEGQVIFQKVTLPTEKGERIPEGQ

In the case of `Nc1ncnc2c1ncn2[C@@H]1O[C@H](COP(=O)(O)OP(=O)(O)OP(=O)(O)O)[C@@H](O)[C@H]1O` [ATP], the substrate inhibition constant ([1]; ATP, 3 mM methionine) is given as 2080 µM, the Km ([1]; saturating 3 mM methionine, N = 3, read-out: TcMetRS apparent Michaelis constant (Km app) for ATP) is given as 63 µM and the Km [2] is given as 37 µM.

Work on `COC(=O)CNc1nc(Nc2ccc(F)c(F)c2)nc2c1cnn2C` [Compound 27] yielded an IC50 ([3]; LdMetRS pIC50, 50 µM ATP and 50 µM methionine) of 1.41e-06 M, an IC50 ([3]; LdMetRS pIC50, 50 μM methionine, 100 μM ATP, 50 nM LdMetRS, pIC50 = −log IC50 (M)) of 1.26e-06 M and an IC50 ([3]; LdMetRS pIC50, both substrate concentrations increased to 500 µM) of 1.41e-06 M. For the same molecule, the “IC50 shift on increasing substrate concentrations” value ([3]; methionine and ATP increased from 50 μM each to 500 μM, preliminary data) was “no IC50 shifts”, the Emax ([3]; read-out: LdMetRS Maximum % Inhibition Plateau) was 92.9% and the IC50 [4] was > 100000 nM. It also gave an Emax ([4]; read-out: TcMetRS Maximum % Inhibition) of 44.2 ± 6.5%, a chromatographic logD [5] of 2.17 and a solubility at 24 h [6] of 5.5 µM (≈ 1.92 µg/mL). The Ki ([7]; varied substrate ATP) was 1580 ± 40 nM, the Ki ([7]; varied substrate methionine) was 2060 ± 40 nM and the “h (inhibitor Hill slope)” value ([7]; substrate ATP, eq 7) was 1.10 ± 0.02. The “β (fraction of activity remaining)” value ([7]; substrate ATP, eq 7) was 0.027 ± 0.005, the Vmax ([7]; substrate ATP, eq 7) was 0.324 ± 0.004 μM Piformed/min and the “n (substrate Hill slope)” value ([7]; substrate ATP, eq 7) was 1.07 ± 0.02 ^b. The Ks ([7]; substrate ATP, eq 7) was 21.1 ± 0.6 µM, the “h (inhibitor Hill slope)” value ([7]; substrate methionine, eq 7) was 1.05 ± 0.02 and the “β (fraction of activity remaining)” value ([7]; substrate methionine, eq 7) was 0.060 ± 0.005. For the same molecule, the Vmax ([7]; substrate methionine, eq 7) was 0.388 ± 0.009 μM Piformed/min, the “n (substrate Hill slope)” value ([7]; substrate methionine, eq 7) was 0.50 ± 0.01 and the Ks ([7]; substrate methionine, eq 7) was 327 ± 35 µM. The “mode of inhibition, LdMetRS” value ([7]; best fit by F-test, eq 7) was “noncompetitive”, the “fold difference in Ki, TcMetRS versus LdMetRS” value ([8]; Ki from mode of inhibition studies, Table 4) was 5–7 fold and the Ki ([8]; varied substrate ATP) was 11.3 ± 1.2 µM. For the same molecule, the Ki ([8]; varied substrate methionine) was 10.8 ± 0.7 µM, the “h (inhibitor Hill slope)” value ([8]; substrate ATP, eq 7) was 1.27 ± 0.14 and the “β (fraction of activity remaining)” value ([8]; substrate ATP, eq 7) was 0.48 ± 0.02. For the same molecule, the Vmax ([8]; substrate ATP, eq 7) was 0.287 ± 0.006 μM Piformed/min, the “n (substrate Hill slope)” value ([8]; substrate ATP, eq 7) was 1.07 ± 0.03 ^b and the Ks ([8]; substrate ATP, eq 7) was 40.5 ± 2.0 µM. The “h (inhibitor Hill slope)” value ([8]; substrate methionine, eq 7) was 1.48 ± 0.11, the “β (fraction of activity remaining)” value ([8]; substrate methionine, eq 7) was 0.65 ± 0.01 and the Vmax ([8]; substrate methionine, eq 7) was 0.429 ± 0.016 μM Piformed/min. The “n (substrate Hill slope)” value ([8]; substrate methionine, eq 7) was 0.42 ± 0.01, the Ks ([8]; substrate methionine, eq 7) was 1340 ± 237 µM and the “mode of inhibition, TcMetRS” value ([8]; best fit, eq 7) was “noncompetitive”.

For `O=c1nc(NCCCNCc2cc3c(Cl)cc(Cl)cc3[nH]2)[nH]c2ccccc12` [DDD806905, reference compound], the IC50 ([4]; 50 μM methionine, 100 μM ATP, 80 nM TcMetRS, read-out: TcMetRS pIC50 (converted)) is listed as 39.8 nM, the IC50 ([4]; 50 μM methionine, 100 μM ATP, 80 nM TcMetRS, tight binding limit likely reached, read-out: TcMetRS IC50) is listed as 38 nM and the “LdMetRS pIC50” value [9] is listed as 7.0. For the same molecule, the in vivo efficacy [10] was “failed to show in vivo efficacy”.

In the case of `CSCC[C@H](N)C(=O)O` [methionine], the Km [2] is listed as 173 µM.

B1: TcMetRS (Trypanosoma cruzi strain CL Brener) (protein)
chain: MSLKLFSEKANTQALKALLCCHHVKRPVELTLSGAYTSPVLHHPALKQPIFSANEMVRLILHDKWRDDSAGGSGGKKTGCYDGHWASVSLEEEAWLEWEATTFTCAVHPLYTQRRVTPEAAGAFEYLDNKIHENDCRGPCLAPVGEKGTSTKSPSFLVDCIIWCAVLPALCEGGLLGEKEREKLPHLLKWFESFQSAREAHIAGAVESLAVQEFADFLRAPRVYKLSPKISKVFFITTPIYYVNAAPHIGHVYSTLIVDVIGRYHTMKGERVFAMSGTDEHGQKVAEAARQKGMNPYDFTCQVSREFIDCFEQMGYHMDYFIRTTNESHKKVVHELWSKLEAKGDIYLGRYEGWYSVSDESFLTAQNVTDGVDKDGKPCKVSLESGHVVTWLAEDNYMFRLSAFRERLLEWYNNNPGCIVPEFRRREVIRTVEKGLNDLSVSRTREAVQDWAIPVPGNPNHCIYVWLDALSNYYTASRLRLGKSGEELELVEDHRVLERFPADIHVIGKDILKFHAIYWPAFLISAGLPLPKTIVAHGWWTKDRKKISKSLGNVFDPVEKAREFGFDALKYFLLRETGFSDDGDYSDRNMISRLNGELADTLGNLVMRCTSAKINVHRVWPTPDAYNAKDEALIQLIKDLPGVVDHFFLIPDVQKALAAVFDLLRAINSYVTENAPWRLVKTDPDRLRTVLYITMEGTRLATLMLSPVLSQKAPVIFDMLGVPEANRVGVENFGFGVVPSGTSIGDAVEGKVLFPKISLDKAQSA
Molecule B1 has a Km [11] of 212 µM.
